Results taken from ChEMBL document CHEMBL6153048, “Synthesis and pharmacological evaluation of natural product diphyllin derivatives against head and neck squamous cell carcinoma” (Eur J Med Chem, 2025).
Calls of active or inactive are those of the source. The calls are words filed in the database; no cut-off is given here.

Columns and labels:
[1] = tested on: CAL-27; assay: Induction of apoptosis in human CAL-27 cells assessed as viable cells at 1 nM incubated for 72 hrs by Annexin V-FITC/propidium iodide staining based flow cytometry analysis (reference value: 88.23%); format: functional; conditions: read-out: Activity
[2] = tested on: CAL-27; assay: Induction of apoptosis in human CAL-27 cells assessed as early apoptotic cells at 1 nM incubated for 72 hrs by Annexin V-FITC/propidium iodide staining based flow cytometry analysis (reference value: 9.16%); format: functional
[3] = tested on: CAL-27; assay: Induction of apoptosis in human CAL-27 cells assessed as viable cells at 10 nM incubated for 72 hrs by Annexin V-FITC/propidium iodide staining based flow cytometry analysis (reference value: 88.23%); format: functional; conditions: read-out: Activity
[4] = tested on: CAL-27; assay: Induction of apoptosis in human CAL-27 cells assessed as late apoptotic cells at 1000 nM incubated for 72 hrs by Annexin V-FITC/propidium iodide staining based flow cytometry analysis (reference value: 2.57%); format: functional
[5] = tested on: CAL-27; assay: Induction of cell cycle arrest in human CAL-27 cells assessed as accumulation of cells at G1 phase at 1 to 1000 nM incubated for 48 hrs by flow cytometry analysis (Rvb= 58.6%); format: functional; conditions: dose 1-1000 nM
[6] = tested on: CAL-27; assay: Effect on cell growth factor in human CAL-27 cells assessed as regulation of cell growth factor related gene expression at 1 nM incubated for 48 hrs by GO analysis; format: functional, cell-based
[7] = tested on: CAL-27; assay: Effect on cell adhesion molecule in human CAL-27 cells assessed as regulation of gene expression at 1 nM incubated for 48 hrs by GSEA analysis; format: functional, cell-based
[8] = tested on: CAL-27; assay: Antitumor activity against human CAL-27 cells xenografted in BALB/c mouse model assessed as tumor volume change at 0.3 mg/kg, iv treated four times a week for 30 days; format: functional; conditions: CAL-27, 720 h, time 30 day, read-out: TGI
[9] = Toxicity in BALB/c mouse xenografted with human CAL-27 cells assessed as body weight at 0.6 mg/kg, iv treated four times a week for 30 days; format: organism-based; conditions: in vivo, 720 h, time 30 day
[10] = tested on: CAL-27; assay: Antitumor activity against human CAL-27 cells xenografted in BALB/c mouse model assessed as reduction in nuclear division at 0.6 mg/kg, iv treated four times a week for 30 days by HE staining analysis; format: functional, organism-based; conditions: time 30.0 day

COc1cc2c(O)c3c(c(-c4ccc5c(c4)OCO5)c2cc1OC)C(=O)OC3 [DIPHYLLIN]
viability at 0.001 µM [1]: 91.4% | Activity [2]: 2.68% | viability at 0.01 µM [3]: 94.8% | Activity [4]: 5.03%

COc1cc2c(O[C@@H]3O[C@@H]4CO[C@@H](c5ccsc5)O[C@H]4[C@H](O)[C@H]3O)c3c(c(-c4ccc5c(c4)OCO5)c2cc1OC)C(=O)OC3
Activity [5]: 78.7% | Activity [6]: Active | Activity [7]: Active | inhibition in vivo at 0.3 mg/kg [8]: 29.2% | Activity [9]: Non-toxic | Activity [10]: Active
